Reference: publication PMC10552892, “Ebselen oxide and derivatives are new allosteric HER2 inhibitors for HER2‐positive cancers” (Molecular Oncology, 2023)

Key:
[1] = biological target: T1, JMHER2 (peptide derived from the cytosolic juxtamembrane sequence of HER2) (Homo sapiens, UniProt P04626); experiment: Surface plasmon resonance binding to immobilized HER2 juxtamembrane peptide; conditions: analyte 5 or 10 μM, 60 s injection
T1 construct: purchased Proteogenix
Experimental: Interaction was performed on a BIAcore T200 instrument BIAcore (Cytiva Life Sciences, Marlborough, MA, USA); GE Healthcare (Little Chalfont, UK). […] Ebselen or ebselen oxide was used as an analyte and injected at 5 or 10 μM at a flow rate of 25 μL·min^−1 for 60 s.

gD-HER2-WT = biological target: T2, gD-HER2-WT (Homo sapiens, UniProt P04626); experiment: Western blot of HBMECs overexpressing gD-HER2-WT; assay type: cell-based; conditions: 5 μM, 24 h
T2 construct: expressed in transfected cells; host or cells: HBMEC (human bone marrow endothelial cells)
T2 sequence (P04626 23-1255): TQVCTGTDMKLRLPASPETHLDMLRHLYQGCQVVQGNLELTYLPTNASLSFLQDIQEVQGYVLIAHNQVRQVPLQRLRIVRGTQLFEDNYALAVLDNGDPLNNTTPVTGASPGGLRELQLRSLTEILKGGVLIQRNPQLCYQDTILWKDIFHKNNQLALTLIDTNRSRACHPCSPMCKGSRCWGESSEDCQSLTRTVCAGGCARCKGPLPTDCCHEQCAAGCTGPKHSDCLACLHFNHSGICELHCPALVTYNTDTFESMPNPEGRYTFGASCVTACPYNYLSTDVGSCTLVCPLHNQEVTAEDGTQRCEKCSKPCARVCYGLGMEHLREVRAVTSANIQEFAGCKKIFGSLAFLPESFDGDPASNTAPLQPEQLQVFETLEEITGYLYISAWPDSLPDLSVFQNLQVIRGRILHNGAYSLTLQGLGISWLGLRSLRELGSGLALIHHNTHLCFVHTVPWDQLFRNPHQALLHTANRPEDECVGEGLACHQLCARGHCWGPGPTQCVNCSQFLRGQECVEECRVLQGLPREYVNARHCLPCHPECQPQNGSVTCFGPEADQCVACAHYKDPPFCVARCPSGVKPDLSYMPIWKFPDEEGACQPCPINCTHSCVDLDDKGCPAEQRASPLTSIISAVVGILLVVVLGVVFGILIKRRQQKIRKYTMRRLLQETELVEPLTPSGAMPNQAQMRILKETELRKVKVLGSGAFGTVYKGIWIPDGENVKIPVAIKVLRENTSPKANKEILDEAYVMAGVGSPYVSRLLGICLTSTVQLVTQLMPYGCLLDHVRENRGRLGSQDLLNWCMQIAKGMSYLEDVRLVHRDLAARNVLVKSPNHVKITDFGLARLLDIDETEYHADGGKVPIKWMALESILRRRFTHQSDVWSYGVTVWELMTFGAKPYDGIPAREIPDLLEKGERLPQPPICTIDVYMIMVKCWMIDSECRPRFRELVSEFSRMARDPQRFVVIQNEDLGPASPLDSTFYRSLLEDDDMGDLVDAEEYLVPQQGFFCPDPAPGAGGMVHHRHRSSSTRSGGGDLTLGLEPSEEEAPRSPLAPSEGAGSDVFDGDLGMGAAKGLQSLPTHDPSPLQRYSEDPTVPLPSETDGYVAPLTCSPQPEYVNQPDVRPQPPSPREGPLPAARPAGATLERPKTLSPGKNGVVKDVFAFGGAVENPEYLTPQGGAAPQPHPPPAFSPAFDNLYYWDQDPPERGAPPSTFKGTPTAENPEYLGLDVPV
Experimental: (§1) Human bone marrow endothelial cells (HBMECs) kindly provided by Dr. B. Weksler (Weill Medical College of Cornell University, NY) were cultured as described previously. The human breast cancer cell lines [SKBR3 (RRID:CVCL_0033), BT474 (RRID:CVCL_0179), and MDA‐MB‐231 (RRID:CVCL_0062)], the human gastric [NCI‐87 (RRID:CVCL_1603)] and ovarian [SKOV3 (RRID:CVCL_0532)] cancer cell lines were obtained from the American Type Culture Collection (Manassas, VA) and were maintained in DMEM containing 10% FBS. All cell lines were cultured under 5% CO2 at 37 °C. HBMECs were transfected using Amaxa Inc nucleofector system (Kit V and U015 program). FBS was decreased to 1% to analyze HER2 activation status and HER2‐dependent cell proliferation in SKOV3 as previously described. Periodic tests for Mycoplasma and authentication were performed using commercially available kits.

[2] = biological target: T3, HER2 in heterodimers with EGFR/HER1 (Homo sapiens, UniProt P04626); experiment: Ligand-dependent HER2 activation in HBMECs upon EGF stimulation (western blot); assay type: cell-based; conditions: 10 μM, 50 ng/ml EGF 5 min
T3 construct: in noncancer cells expressing normal levels of HER2; endogenous in cells; host or cells: HBMEC
T3 sequence (P04626 23-1255, one chain of several): as the sequence (P04626 23-1255) above

HER2 (pY1248) in SKOV3 = biological target: T4, HER2 (pY1248) in SKOV3 (Homo sapiens, UniProt P04626); experiment: HER2 activation in SKOV3 ovarian cancer cells, western blot; assay type: cell-based; conditions: ebselen oxide 0–10 μM 24 h, AG1478 5 μM
T4 construct: host or cells: SKOV3
T4 sequence (P04626 23-1255): as above
Experimental: as §1, with “FBS was decreased to 1% to analyze HER2 activation status and HER2‐dependent cell proliferation in SKOV3 as previously described. Periodic tests for Mycoplasma and authentication were performed using commercially available kits.” left out
Fig. 3 Ebselen oxide inhibits HER2 activation and HER2‐dependent proliferation in gastric and ovarian HER2^+ cancer cells. (A) HER2‐positive NCI‐87 gastric cancer cells were treated with ebselen oxide (0–20 μM) for 24 h, lysed, and analyzed by western blot using anti‐pY1248‐HER2, HER2, and β‐tubulin antibodies. […] (B) HER2‐positive SKOV3 ovarian cancer cells were treated with ebselen oxide (0–10 μM) for 24 h, lysed, and analyzed by western blot using anti‐pY1248‐HER2, HER2, and ezrin antibodies. […] (C, D) Proliferation curves of NCI‐N87 gastric (C) or SKOV3 ovarian (D) cancer cells treated with vehicle or 7–10 μM ebselen oxide measured by MTT assay. […]

NCI-N87 [3] = experiment: Proliferation of NCI-N87 cells; assay type: cell-based, human; conditions: ebselen oxide 7–10 μM, AG1478 5 μM
Experimental: Fig. 3 Ebselen oxide inhibits HER2 activation and HER2‐dependent proliferation in gastric and ovarian HER2^+ cancer cells. (A) HER2‐positive NCI‐87 gastric cancer cells were treated with ebselen oxide (0–20 μM) for 24 h, lysed, and analyzed by western blot using anti‐pY1248‐HER2, HER2, and β‐tubulin antibodies. A representative western blot is shown out of 4 independent experiments. (B) HER2‐positive SKOV3 ovarian cancer cells were treated with ebselen oxide (0–10 μM) for 24 h, lysed, and analyzed by western blot using anti‐pY1248‐HER2, HER2, and ezrin antibodies. A western blot is shown (n = 1). (C, D) Proliferation curves of NCI‐N87 gastric (C) or SKOV3 ovarian (D) cancer cells treated with vehicle or 7–10 μM ebselen oxide measured by MTT assay. Data are mean ± SEM (n = 9–12) of three independent experiments.
Supplementary figure 4: NCI-N87 and SKOV3 cancer cell lines are addicted to the HER2 pathway
(A) NCI-N87 cells were treated (+) or not (-) with a non-specific HER2 inhibitor AG1478 (5 µM). Whole cell lysates were analyzed by western blot with pY1248 HER2, HER2 and pERK antibodies.
(B) SKOV3 cells were treated (+) or not (-) with a non-specific HER2 inhibitor AG1478 (5 µM). Whole cell lysates were analyzed by western blot with pY1248 HER2, HER2, pERK or beta-tubulin antibodies.
(C) Proliferation curves of NCI-N87 treated or not with AG1478 (5 µM). Data are mean ± sem (n=4-6). 2- […]

SKBR3 = experiment: Incucyte proliferation, single agents and combinations, SKBR3; assay type: cell-based; conditions: Homo sapiens, SK-BR-3, 96 h; read-out: Reduction/inhibition of cell proliferation
Experimental: (A–C) Proliferation curves of HER2‐positive (SKBR3, A; BT474, B; NCI‐N87, C) cancer cell lines treated or not with ebselen oxide (10 μM), lapatinib (10–1000 nM), or combination of these agents, as indicated. Proliferation was assessed overtime by Incucyte during 4 days. Data are mean ± SD (n = 8–12) of a representative experiment out of 4 (A), 3 (B), or 2 (C) independent experiments. […] Proliferation was assessed by Incucyte during 4 days. […] Scale bars are […].

NCI-N87 [4] = experiment: Anchorage-independent growth (spheroid assay, ULA plates), NCI-N87; assay type: cell-based, human; conditions: ebselen oxide 10 μM, lapatinib 10 nM, trastuzumab 10 μg·mL−1, alone or combined
Experimental: 5.10^3 cells/24‐well were seeded in a complete medium in ULA plates (Corning® Costar® (Corning, NY, USA) C LS3473‐24EA) in the presence of indicated compounds. Spheroids were imaged 6–8 days later with a phase‐contrast microscope, and their areas were measured using IMAGEJ software.
Proliferation was assessed overtime by Incucyte during 4 days. Data are mean ± SD (n = 8–12) of a representative experiment out of 4 (A), 3 (B), or 2 (C) independent experiments. One‐way ANOVA followed by Sidak multiple comparison test, (*, compared with Vehicle; ° and #, respectively, compared with lapatinib 10 and 1000 nM) ***P < 0.001, ****P < 0.0001. […] Proliferation was assessed by Incucyte during 4 days. Data are mean ± SD (n = 8–12) of a representative experiment out of two independent experiments. […] Images of a representative experiment out of 3 (G) or 4 (H) independent experiments and quantification of the colony total area are shown where data are mean ± SEM. One‐way ANOVA followed by multiple comparison test, *P < 0.05, **P < 0.01. Scale bars are 100 μM.

In the case of `O=C1c2ccccc2[Se](=O)N1c1ccccc1` (centres unmarked) [Ebselen oxide, ebselen oxide], the “Direct binding to JMHER2 (SPR)” value [1] is reported as “directly bind”, the “Reduction of phosphorylation level of gD-HER2-WT” value (gD-HER2-WT; HBMEC) is reported as 40% and the “Reduction in the activation of ERK protein kinase” value (gD-HER2-WT; HBMEC gD-HER2-WT) is reported as 65%. The “Physiological activation of HER2 in heterodimers and downstream AKT and ERK activation upon EGF” value [2] was “did not alter”, the “Effect on HER2 activation” value (HER2 (pY1248) in SKOV3) was “strongly blocked” and the “Effect on proliferation” value (NCI-N87 [3]) was “reduced proliferation”. For the same compound, the inhibition at 10 µM (SKBR3) was 64% and the “Reduction of anchorage-independent growth (spheroid assay)” value (NCI-N87 [4]) was 23%.
